Measurements: US9217139B2, “Extracellularly secreted nuclease” (JAPAN AGENCY FOR MARINE-EARTH SCIENCE AND TECHNOLOGY, priority 2010, dated 2015)
Values joined by “and” are separate entries in the source; they are usually repeats but may differ in a detail not shown here. Equal entries are not always repeated. Where two headings read alike, the source gives them in different places.

What was measured:
NucL = assay type: biochemical, Streptomyces sp. MBE174; conditions: for effect of the chemical substance on NucL activity (in words): summary of Table 3
Procedure: (§1) In this case, 1 U represents an amount of enzymes necessary to increase the absorbancy of 260 nm by one for 30 minutes when the enzymes works on the following as substrate: Salmon sperm DNA 1 mg/mL (manufactured by Invitrogen; Cat no. 15632-011).
(§2) NucS and NucL were kept in contact with the compounds listed in Table 3 on an ice bath for one hour, and then, the enzyme activity was measured by the standard specific activity measurement method (referring to Table 3). […] Incidentally, poorly water-soluble compounds were dissolved in dimethyl sulfoxide, and then added to an enzyme solution. The final concentration of dimethyl sulfoxide after addition was 5 percent. The activity in the presence of 5 percent of dimethyl sulfoxide was regarded as being 100 percent.

NucS = assay type: biochemical, Streptomyces sp. MBE174
Procedure: as §1, §2

Salmon sperm DNA = experiment: standard specific activity measurement method (increase of absorbancy at 260 nm); assay type: biochemical; conditions: fraction after each purification step of NucS (Table 1)
Procedure: The specific activity of NucS was measured at 37 degrees Celsius in 20 mM of Tris/HCl at pH 8.5 that contains 1 mM of MgCl2 and 1 mM of CaCl2 (a measurement method under the condition described here is also referred to as a standard specific activity measurement method, hereinafter); the specific activity was 3.6×10^6 U/mg-protein, which was a very high level of specific activity. In this case, 1 U represents an amount of enzymes necessary to increase the absorbancy of 260 nm by one for 30 minutes when the enzymes works on the following as substrate: Salmon sperm DNA 1 mg/mL (manufactured by Invitrogen; Cat no. 15632-011). As a reference, as for NucS, when the specific activity of Benzonase (Registered Trademark), which was a commercially available nucleolytic enzyme that had the highest specific activity among those listed in a brochure, was measured under the conditions described in the brochure (37 degrees Celsius) with the use of the same substrate; the specific activity was 9.4×10^5 U/mg-protein. As a result, it became clear that the specific activity of NucS is about 3.8 times higher than that of Benzonase.
The specific activity of NucL was 5.6×10^4 U/mg-protein at 37 degrees Celsius in 20 mM of Tris/HCl at pH 8.5 that contains 1 mM of MgCl2 and 1 mM of CaCl2. The isoelectric point was measured by using Novex (Registered Trademark) IEF pH-3-10 gel (manufactured by Invitrogen); and then pl was 7.0. Then, it was determined that a N-terminal amino acid sequence of the purified enzyme was DSVRIHDIQGTTR. The sequence matched 12 out of 13 amino acids of putative protein (putative secreted hydrolase) coded on a genome of Streptomyces scabiei 87.22, and of putative protein (large secreted protein) coded on a genome of S. avermitilis MA-4680.

[1] = chemical at 1.0 mM, contact on ice bath one hour, additive-free = 100
[2] = chemical at 5.0 mM, contact on ice bath one hour, additive-free = 100
[3] = chemical at 0.1%, contact on ice bath one hour, additive-free = 100
[4] = chemical at 1.0%, contact on ice bath one hour, additive-free = 100
[5] = chemical at 10.0%, contact on ice bath one hour, additive-free = 100
[6] = chemical at 20.0%, contact on ice bath one hour, additive-free = 100
[7] = chemical at 0.1 mM, contact on ice bath one hour, additive-free = 100
[8] = chemical at 2.0M, contact on ice bath one hour, additive-free = 100
[9] = chemical at 4.0M, contact on ice bath one hour, additive-free = 100
[10] = chemical at 6.0M, contact on ice bath one hour, additive-free = 100

Molecule: O[C@H](CS)[C@H](O)CS (racemic) [Dithiothreitol]
- Relative activity of NucL (%) (NucL; [1]): 89%
- Relative activity of NucL (%) (NucL; [2]): 89%
- Relative activity of NucS (%) (NucS; [1]): 105%
- Relative activity of NucS (%) (NucS; [2]): 104%

Molecule: Triton X
- Relative activity of NucL (%) (NucL; [3]): 137%
- Relative activity of NucL (%) (NucL; [4]): 128%
- Relative activity of NucS (%) (NucS; [3]): 115%
- Relative activity of NucS (%) (NucS; [4]): 108%

Molecule: O=C(O)CI [Iodoacetic acid]
- Relative activity of NucL (%) (NucL): 102% and 97%
- Relative activity of NucS (%) (NucS): 103% and 96%

Molecule: Hydroxyapatite
- Specific activity (U/mg) (Salmon sperm DNA): 38596 U/mg

Molecule: C[S+](C)[O-] [Dimethyl sulfoxide]
- Relative activity of NucL (%) (NucL; [4]): 105%
- Relative activity of NucL (%) (NucL; [5]): 75%
- Relative activity of NucL (%) (NucL; [6]): 40%
- Relative activity of NucS (%) (NucS; [4]): 110%
- Relative activity of NucS (%) (NucS; [5]): 116%
- Relative activity of NucS (%) (NucS; [6]): 113%
- effect of the chemical substance on NucS activity (in words) (NucS; summary of Table 3): high resistance

Molecule: [Cl][Cu][Cl] [CuCl2]
- Relative activity of NucL (%) (NucL; [7]): 96%
- Relative activity of NucL (%) (NucL; [1]): 9%
- effect of the chemical substance on NucL activity (in words) (NucL): strongly inhibited
- Relative activity of NucS (%) (NucS; [7]): 111%
- Relative activity of NucS (%) (NucS; [1]): 3%
- effect of the chemical substance on NucS activity (in words) (NucS; summary of Table 3): strongly inhibited

Molecule: CCCCCCCCCCCCOS(=O)(=O)[O-].[Na+] [SDS]
- Relative activity of NucL (%) (NucL; [3]): 89%
- Relative activity of NucL (%) (NucL; [4]): 121%
- effect of the chemical substance on NucL activity (in words) (NucL): high resistance
- Relative activity of NucS (%) (NucS; [3]): 85%
- Relative activity of NucS (%) (NucS; [4]): 0%

Molecule: CN(C)C=O [Dimethyl formamide]
- Relative activity of NucL (%) (NucL; [4]): 99%
- Relative activity of NucL (%) (NucL; [5]): 74%
- Relative activity of NucL (%) (NucL; [6]): 56%
- Relative activity of NucS (%) (NucS; [4]): 91%
- Relative activity of NucS (%) (NucS; [5]): 118%
- Relative activity of NucS (%) (NucS; [6]): 117%
- effect of the chemical substance on NucS activity (in words) (NucS; summary of Table 3): high resistance

Molecule: [Cl-].[Cl-].[Zn+2] [ZnCl2]
- Relative activity of NucL (%) (NucL; [7]): 1%
- Relative activity of NucL (%) (NucL; [1]): 0%
- effect of the chemical substance on NucL activity (in words) (NucL): strongly inhibited
- Relative activity of NucS (%) (NucS; [7]): 3%
- Relative activity of NucS (%) (NucS; [1]): 0%
- effect of the chemical substance on NucS activity (in words) (NucS; summary of Table 3): strongly inhibited

Molecule: O=C(O)c1cc[c]([Hg][Cl])cc1 [Parachloro mercury benzoate]
- Relative activity of NucL (%) (NucL; [7]): 108%
- Relative activity of NucL (%) (NucL; [1]): 91%
- Relative activity of NucS (%) (NucS; [7]): 92%
- Relative activity of NucS (%) (NucS; [1]): 94%

Molecule: OCCS [Melcaptoethanol]
- Relative activity of NucL (%) (NucL; [1]): 89%
- Relative activity of NucL (%) (NucL; [2]): 92%
- Relative activity of NucS (%) (NucS; [1]): 112%
- Relative activity of NucS (%) (NucS; [2]): 116%

Molecule: O=S(=O)(F)Cc1ccccc1 [Phenylmethanesulfonyl fluoride]
- Relative activity of NucL (%) (NucL; [1]): 111%
- Relative activity of NucL (%) (NucL; [2]): 99%
- Relative activity of NucS (%) (NucS; [1]): 85%
- Relative activity of NucS (%) (NucS; [2]): 87%

Molecule: O=C(O)CN(CCN(CC(=O)O)CC(=O)O)CC(=O)O [Ethylenediaminetetraacetic acid]
- Relative activity of NucL (%) (NucL; [2]): 0%
- Relative activity of NucL (%) (NucL; chemical at 10.0 mM, contact on ice bath one hour, additive-free = 100): 0%
- effect of the chemical substance on NucL activity (in words) (NucL): strongly inhibited
- Relative activity of NucS (%) (NucS): 0%
- effect of the chemical substance on NucS activity (in words) (NucS): strongly inhibited

Molecule: NC(N)=O [Urea]
- Relative activity of NucL (%) (NucL; [8]): 64%
- Relative activity of NucL (%) (NucL; [9]): 55%
- Relative activity of NucL (%) (NucL; [10]): 43%
- Relative activity of NucS (%) (NucS; [8]): 125%
- Relative activity of NucS (%) (NucS; [9]): 126%
- Relative activity of NucS (%) (NucS; [10]): 92%
